Data on 20 compounds can be found in patent US9169254B2, “Spiroimidazolone derivative” (Chugai Seiyaku Kabushiki Kaisha, priority 2009, dated 2015).

In the first assay the target is T1, human PTH1 receptor (Homo sapiens, UniProt Q03431).
T1 sequence (Q03431 27-593): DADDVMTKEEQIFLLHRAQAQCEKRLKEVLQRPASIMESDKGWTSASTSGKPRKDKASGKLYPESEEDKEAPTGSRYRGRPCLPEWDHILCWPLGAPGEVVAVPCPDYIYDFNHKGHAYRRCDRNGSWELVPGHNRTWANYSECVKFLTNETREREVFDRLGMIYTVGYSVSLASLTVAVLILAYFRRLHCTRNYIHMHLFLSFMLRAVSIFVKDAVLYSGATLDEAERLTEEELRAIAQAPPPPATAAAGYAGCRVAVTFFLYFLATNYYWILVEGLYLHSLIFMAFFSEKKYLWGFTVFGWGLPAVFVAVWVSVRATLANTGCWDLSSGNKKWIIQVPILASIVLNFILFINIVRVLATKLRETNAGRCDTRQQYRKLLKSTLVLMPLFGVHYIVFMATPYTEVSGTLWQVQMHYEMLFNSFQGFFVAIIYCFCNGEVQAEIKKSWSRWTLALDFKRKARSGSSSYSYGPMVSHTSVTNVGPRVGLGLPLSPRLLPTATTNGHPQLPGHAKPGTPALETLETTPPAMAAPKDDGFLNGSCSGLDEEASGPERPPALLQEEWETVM
The assay can be described thus: In vitro cAMP signal activity in HKRK-B7 cells (LLC-PK1 cells overexpressing the human PTH1 receptor). The assay is classed as cell-based. The note with it: HKRK-B7 cells; compound at 1×10^−3 M; […]; 0.1 µM.
For the compound `Cc1cc(N(C)C(=O)OCCN(C)C)ccc1/C=C/S(=O)(=O)N1CCC2(CC1)N=C(c1cccc(OC(F)(F)F)c1)NC2=O` [Compound 466, Methyl-(3-methyl-4-{(E)-2-[4-oxo-2-(3-trifluoromethoxy-phenyl)-1,3,8-triaza-spiro[4.5]dec-1-ene-8-sulfonyl]-vinyl}-phenyl)-carbamic acid 2-dimethylamino-ethyl ester], the “cAMP production activity (%)” value worked out at 23%.
Regarding `COC(=O)N(C)c1ccc(CCS(=O)(=O)N2CCC3(CC2)N=C(c2cccc(OC(F)(F)F)c2)NC3=O)c(C)c1` [Compound 468, Methyl-(3-methyl-4-{2-[4-oxo-2-(3-trifluoromethoxy-phenyl)-1,3,8-triaza-spiro[4.5]dec-1-ene-8-sulfonyl]-ethyl}-phenyl)-carbamic acid methyl ester], the “cAMP production activity (%)” value is given as 90%.
Still for that read-out and setting: to `Cc1cc(N(C)C(N)=S)cc(C)c1CCS(=O)(=O)N1CCC2(CC1)N=C([C@H]1CC[C@H](C)CC1)NC2=O` [Compound 474, 1-(3,5-Dimethyl-4-{2-[2-(4-methyl-cyclohexyl)-4-oxo-1,3,8-triaza-spiro[4.5]dec-1-ene-8-sulfonyl]-ethyl}-phenyl)-1-methyl-thiourea] belongs 89%; to `Cc1cc(N(C)c2nccs2)cc(C)c1CCS(=O)(=O)N1CCC2(CC1)N=C([C@H]1CC[C@H](C)CC1)NC2=O` [Compound 475, 8-{2-[2,6-Dimethyl-4-(methyl-thiazol-2-yl-amino)-phenyl]-ethanesulfonyl}-2-(4-methyl-cyclohexyl)-1,3,8-triaza-spiro[4.5]dec-1-en-4-one], 84%.

The same assay, now with this note: HKRK-B7 cells; compound at 1×10^−3 M; cAMP produced as percentage of that produced by hPTH(1-34) at 100 nM.
Take `O=C(OCc1ccccc1)N1CCCC(C2=NC3(CCN(S(=O)(=O)CCc4cccc5ccccc45)CC3)C(=O)N2)C1` (centres unmarked) [Compound 464, 3-[8-(2-naphthalen-1-yl-ethanesulfonyl)-4-oxo-1,3,8-triaza-spiro[4.5]dec-1-en-2-yl]-piperidine-1-carboxylic acid benzyl ester]: the “cAMP production activity (%)” value is on record as 54%.
The same measure, in the same setting: to `CC(C)(C)COC(=O)N1CCCC(C2=NC3(CCN(S(=O)(=O)CCc4cccc5ccccc45)CC3)C(=O)N2)C1` (centres unmarked) [Compound 465, 3-[8-(2-naphthalen-1-yl-ethanesulfonyl)-4-oxo-1,3,8-triaza-spiro[4.5]dec-1-en-2-yl]-piperidine-1-carboxylic acid 2,2-dimethyl-propyl ester] belongs 66%; to `COC(=O)N(C)c1ccc(/C=C/S(=O)(=O)N2CCC3(CC2)N=C(c2cccc(OC(F)(F)F)c2)NC3=O)c(C)c1` [Compound 467, methyl-(3-methyl-4-{(E)-2-[4-oxo-2-(3-trifluoromethoxy-phenyl)-1,3,8-triaza-spiro[4.5]dec-1-ene-8-sulfonyl]-vinyl}-phenyl)-carbamic acid methyl ester], 60%.
Consider `Cc1ccccc1CCS(=O)(=O)N1CCC2(CC1)N=C(C1CCCCC1)NC2=S` [Compound 469, 2-Cyclohexyl-8-(2-o-tolyl-ethanesulfonyl)-1,3,8-triaza-spiro[4.5]dec-1-ene-4-thione], for which the “cAMP production activity (%)” value is recorded as 47%.
The same measure, in the same setting: to `Cc1cc(N(C)C(N)=O)cc(C)c1CCS(=O)(=O)N1CCC2(CC1)N=C(C1CCC(C)CC1)NC2=O` (centres unmarked) [Compound 470, 1-(3,5-Dimethyl-4-{2-[2-(4-methyl-cyclohexyl)-4-oxo-1,3,8-triaza-spiro[4.5]dec-1-ene-8-sulfonyl]-ethyl}-phenyl)-1-methyl-urea] belongs 90%.
For `Cc1cc(N(C)C(N)=O)cc(C)c1/C=C/S(=O)(=O)N1CCC2(CC1)N=C(C1CCC(C(F)(F)F)CC1)NC2=O` (centres unmarked) [Compound 471, 1-(3,5-Dimethyl-4-{(E)-2-[4-oxo-2-(4-trifluoromethyl-cyclohexyl)-1,3,8-triaza-spiro[4.5]dec-1-ene-8-sulfonyl]-vinyl}-phenyl)-1-methyl-urea], the “cAMP production activity (%)” value worked out at 111%.
With `Cc1cc(N(C)C(N)=O)cc(C)c1CCS(=O)(=O)N1CCC2(CC1)N=C(C1CCC(C(F)(F)F)CC1)NC2=O` (centres unmarked) [Compound 472, 1-(3,5-Dimethyl-4-{2-[4-oxo-2-(4-trifluoromethyl-cyclohexyl)-1,3,8-triaza-spiro[4.5]dec-1-ene-8-sulfonyl]-ethyl}-phenyl)-1-methyl-urea], the “cAMP production activity (%)” value came out at 104%.
On the same count and under the same terms, to `COC(=O)Cn1ccc2c(/C=C/S(=O)(=O)N3CCC4(CC3)N=C(C3CCCCC3)NC4=O)cccc21` [Compound 476, {4-[(E)-2-(2-cyclohexyl-4-oxo-1,3,8-triaza-spiro[4.5]dec-1-ene-8-sulfonyl)-vinyl]-indol-1-yl}-acetic acid methyl ester] belongs 61%; to `O=C(N1CCOCC1)n1ccc2c(/C=C/S(=O)(=O)N3CCC4(CC3)N=C(C3CCCCC3)NC4=O)cccc21` [Compound 477, 2-cyclohexyl-8-{(E)-2-[1-(morpholine-4-carbonyl)-1H-indol-4-yl]-ethenesulfonyl}-1,3,8-triaza-spiro[4.5]dec-1-en-4-one], 31%.
Consider `O=C1NC(C2CCCCC2)=NC12CCN(S(=O)(=O)/C=C/c1cccc3c1ccn3CCCCO)CC2` [Compound 478, 2-cyclohexyl-8-{(E)-2-[1-(4-hydroxy-butyl)-1H-indol-4-yl]-ethenesulfonyl}-1,3,8-triaza-spiro[4.5]dec-1-en-4-one], for which the “cAMP production activity (%)” value stood at 33%.
Consider `O=C1NC(C2CCCCC2)=NC12CCN(S(=O)(=O)/C=C/c1cccc3cc[nH]c13)CC2` [Compound 479, 2-cyclohexyl-8-[(E)-2-(1H-indol-7-yl)-ethenesulfonyl]-1,3,8-triaza-spiro[4.5]dec-1-en-4-one], for which the “cAMP production activity (%)” value was found to be 15%.
As for `O=C1NC(C2CCCCC2)=NC12CCN(S(=O)(=O)/C=C/c1cccc3c1ccn3CCC(O)CO)CC2` (centres unmarked) [Compound 480, 2-cyclohexyl-8-{(E)-2-[1-(3,4-dihydroxy-butyl)-1H-indol-4-yl]-ethenesulfonyl}-1,3,8-triaza-spiro[4.5]dec-1-en-4-one], the “cAMP production activity (%)” value came out at 44%.
On the same count and under the same terms, to `CC(=O)NCCc1ccc(/C=C/S(=O)(=O)N2CCC3(CC2)N=C(C2CCCCC2)NC3=O)cc1` [Compound 481, N-(2-{4-[(E)-2-(2-cyclohexyl-4-oxo-1,3,8-triaza-spiro[4.5]dec-1-ene-8-sulfonyl)-vinyl]-phenyl}-ethyl)-acetamide] belongs 59%; to `CC(=O)NC(C)c1ccc(/C=C/S(=O)(=O)N2CCC3(CC2)N=C(C2CCCCC2)NC3=O)cc1` (centres unmarked) [Compound 482, N-(1-{4-[(E)-2-(2-cyclohexyl-4-oxo-1,3,8-triaza-spiro[4.5]dec-1-ene-8-sulfonyl)-vinyl]-phenyl}-ethyl)-acetamide], 38%; to `O=C1NC(C2CCCCC2)=NC12CCN(S(=O)(=O)/C=C/c1cccc3c1ccn3Cc1nccs1)CC2` [Compound 483, 2-cyclohexyl-8-[(E)-2-(1-thiazol-2-ylmethyl-1H-indol-4-yl)-ethenesulfonyl]-1,3,8-triaza-spiro[4.5]dec-1-en-4-one], 41%.
The same measure, in the same setting: to `NS(=O)(=O)CCCn1ccc2c(/C=C/S(=O)(=O)N3CCC4(CC3)N=C(C3CCCCC3)NC4=O)cccc21` [Compound 484, 3-{4-[(E)-2-(2-cyclohexyl-4-oxo-1,3,8-triaza-spiro[4.5]dec-1-ene-8-sulfonyl)-vinyl]-indol-1-yl}-propane-1-sulfonic acid amide] belongs 47%.
